Measured values reported in US9884818B2, “Sulphamoylpyrrolamide derivatives and the use thereof as medicaments for the treatment of hepatitis B” (Janssen Sciences Ireland UC, priority 2013, dated 2018).

Experiments:
HepG2 cells = experiment: Cytotoxicity in HepG2 cells, Resazurin viability assay; details: read-out: HepG2 4 days CC50; HepG2 cells, incubated for 4 days, Resazurin assay
HBV [1] = experiment: Anti-HBV activity, HepG2.2.15 stable transfected cell line, HBV DNA from secreted virions by realtime PCR; assay type: cell-based; details: HepG2.2.15 cells, 6 days of treatment, HBV DNA from secreted virions, read-out: HepG2 2.15 EC50
HBV [2] = experiment: Anti-HBV activity, HepG2.117 inducibly HBV producing cell line (Tet-off), intracellular HBV DNA by realtime PCR; assay type: cell-based; details: HepG2.117 cells, 3 days of treatment, intracellular HBV DNA, read-out: HepG2 117 EC50
[3] = Cytotoxicity in HepG2 cells, Resazurin viability assay; details: human, HepG2 cells, HepG2 4 days CC50 (μM), incubated for 4 days, Resazurin assay
[4] = Hepatitis B virus, HepG2.2.15, 144 h
[5] = Hepatitis B virus, HepG2.117, 72 h

SMILES	CC50 (HepG2 cells) [nM]	EC50 (HBV [1]) [nM]	EC50 (HBV [2]) [nM]	CC50 at 4 days [3] [µM]	EC50 (HBV [1]; [4]) [nM]	EC50 (HBV [2]; [5]) [nM]
CC(NS(=O)(=O)c1cc(C(=O)Nc2ccc(F)c(C#N)c2)n(C)c1)C(F)F (single isomer, unassigned) [Compound 200b, N-(3-Cyano-4-fluorophenyl)-4-{[2,2-difluoro-1-methylethyl]sulfamoyl}-1-methyl-1H-pyrrole-2-carboxamide]	> 25000	90	100	–	–	–
Cn1cc(S(=O)(=O)NC2(C(F)(F)F)CCOC2)cc1C(=O)Nc1ccc(F)c(C#N)c1 (single isomer, unassigned) [Compound 228b, N-(3-Cyano-4-fluorophenyl)-1-methyl-4-{[3-(trifluoromethyl)tetrahydrofuran-3-yl]sulfamoyl}-1H-pyrrole-2-carboxamide]	> 25000	30	–	–	–	–
CCC(C)(NS(=O)(=O)c1cc(C(=O)Nc2cc(F)c(F)c(Cl)c2)n(C)c1)C(F)(F)F (single isomer, unassigned) [Compound 165b, N-(3-chloro-4,5-difluoro-phenyl)-1-methyl-4-[[1-methyl-1-(trifluoro-methyl)propyl]sulfamoyl]pyrrole-2-carboxamide]	4800	120	20	–	–	–
Cn1cc(S(=O)(=O)NC2CCCC2(F)F)cc1C(=O)Nc1ccc(F)c(Cl)c1F (single isomer, unassigned) [Compound 236b, N-(3-Chloro-2,4-difluorophenyl)-4-{[2,2-difluorocyclopentyl]sulfamoyl}-1-methyl-1H-pyrrole-2-carboxamide]	> 25000	60	50	–	–	–
Cn1cc(S(=O)(=O)NC2CCC(F)(F)C2)cc1C(=O)Nc1cc(F)c(F)c(Cl)c1 (single isomer, unassigned) [Compound 166b, N-(3-Chloro-4,5-difluorophenyl)-4-[(3,3-difluorocyclopentyl)sulfamoyl]-1-methyl-1H-pyrrole-2-carboxamide]	21300	310	170	–	–	–
CC(CC(F)(F)F)NS(=O)(=O)c1cc(C(=O)Nc2cc(F)c(F)c(Cl)c2)n(C)c1 (single isomer, unassigned) [Compound 169b, N-(3-Chloro-4,5-difluorophenyl)-1-methyl-4-[(3,3,3-trifluoro-1-methylpropyl)sulfamoyl]-1H-pyrrole-2-carboxamide]	17100	40	30	–	–	–
C[C@@H](NS(=O)(=O)c1cc(C(=O)Nc2ccc(F)c(C#N)c2)n(C)c1)C(F)(F)F [Compound 157, N-(3-cyano-4-fluoro-phenyl)-1-methyl-4-[[(1R)-2,2,2-trifluoro-1-methylethyl]sulfamoyl]pyrrole-2-carboxamide]	–	–	–	> 25	80	50
C[C@@H](NS(=O)(=O)c1cc(C(=O)Nc2cccc(Br)c2F)n(C)c1)C(F)(F)F [Compound 206, N-(3-Bromo-2-fluorophenyl)-1-methyl-4-{[(1R)-2,2,2-trifluoro-1-methylethyl]sulfamoyl}-1H-pyrrole-2-carboxamide]	–	–	–	> 25	30	90
Cn1cc(S(=O)(=O)NCCC(F)(F)F)cc1C(=O)Nc1cc(F)c(F)c(Cl)c1 [Compound 168, N-(3-Chloro-4,5-difluorophenyl)-1-methyl-4-[(3,3,3-trifluoropropyl)sulfamoyl]-1H-pyrrole-2-carboxamide]	–	–	–	> 25	120	320
Cc1cc(NC(=O)c2cc(S(=O)(=O)NC3(CC#N)CC3)cn2C)ccc1F [Compound 18, 4-[[1-(cyanomethyl)cyclopropyl]sulfamoyl]-N-(4-fluoro-3-methyl-phenyl)-1-methyl-pyrrole-2-carboxamide]	–	–	–	> 25	< 20	30
C[C@H](NS(=O)(=O)c1cc(C(=O)Nc2cc(F)c(F)c(Cl)c2)n(C)c1)C(F)(F)F [Compound 103, N-(3-Chloro-4,5-difluorophenyl)-1-methyl-4-{[(1S)-2,2,2-trifluoro-1-methylethyl]sulfamoyl}-1H-pyrrole-2-carboxamide]	–	–	–	> 25	50	20
[2H]c1cc(F)c(C)c([2H])c1NC(=O)c1cc(S(=O)(=O)NC2(C)COC2)cn1C [Compound 56, N-(2,6-dideuterio-4-fluoro-3-methyl-phenyl)-1-methyl-4-[(3-methyloxetan-3-yl)sulfamoyl]pyrrole-2-carboxamide]	–	–	–	> 25	20	< 20
Cc1cc(NC(=O)c2cc(S(=O)(=O)N[C@H]3CCOC3)cn2C)ccc1F [Compound 4, N-(4-fluoro-3-methyl-phenyl)-1-methyl-4-[[(3S)-tetrahydrofuran-3-yl]-sulfamoyl]pyrrole-2-carboxamide]	–	–	–	> 25	100	60
Cn1cc(S(=O)(=O)NC(C)(C)C)c(F)c1C(=O)Nc1ccc(F)c(C#N)c1 [Compound 214, 4-(tert-Butylsulfamoyl)-N-(3-cyano-4-fluorophenyl)-3-fluoro-1-methyl-1H-pyrrole-2-carboxamide]	–	–	–	> 25	60	20
Cn1cc(S(=O)(=O)NC(C)(C)C)c(Cl)c1C(=O)Nc1ccc(F)c(C#N)c1 [Compound 226, 4-(tert-Butylsulfamoyl)-3-chloro-N-(3-cyano-4-fluorophenyl)-1-methyl-1H-pyrrole-2-carboxamide]	–	–	–	> 25	190	210
Cn1cc(S(=O)(=O)NC2CCC(F)(F)C2)cc1C(=O)Nc1cc(F)c(F)c(Cl)c1 (single isomer, unassigned) [Compound 166a, N-(3-Chloro-4,5-difluorophenyl)-4-[(3,3-difluorocyclopentyl)sulfamoyl]-1-methyl-1H-pyrrole-2-carboxamide]	–	140	–	17.9	–	100
C[C@@H](NS(=O)(=O)c1cc(C(=O)Nc2cccc(C(F)(F)F)c2F)n(C)c1)C(F)(F)F [Compound 159, N-[2-Fluoro-3-(trifluoromethyl)phenyl]-1-methyl-4-{[(1R)-2,2,2-trifluoro-1-methylethyl]sulfamoyl}-1H-pyrrole-2-carboxamide]	–	–	–	> 25	90	810
